Source: ChEMBL document CHEMBL5532643, “Design and synthesis of etrasimod derivatives as potent antibacterial agents against Gram-positive bacteria” (Eur J Med Chem, 2024)
≈ marks a conversion by molar mass, not a printed value. Where “and” joins values, the source holds several entries; their conditions need not be identical. Equal entries are not always repeated. One block for each compound: values may come before it.

Legend:
Type in all cases: functional
Staphylococcus aureus [1] = test: Antibiofilm activity against Staphylococcus aureus ATCC 25923 assessed as inhibition of biofilm viability at 100 uM incubated for 18 to 20 hrs by resazurin staining based assay; settings: time 18-20 hrs
Staphylococcus aureus [2] = test: Antibacterial activity against Staphylococcus aureus ATCC 25923 assessed as reduction in bacterial growth incubated for 18 to 20 hrs by broth microdilution assay; settings: time 18-20 hrs
Staphylococcus aureus [3] = test: Antibacterial activity against Staphylococcus aureus ATCC 25923 assessed as inhibition of bacterial growth at 40 uM incubated for 18 to 24 hrs by broth microdilution assay relative to control; settings: time 18-24 hrs
Staphylococcus aureus [4] = test: Antibiofilm activity against Staphylococcus aureus ATCC 25923 assessed as inhibition of biofilm biomass at 100 uM incubated for 18 to 20 hrs by crystal violet staining based assay; settings: time 18-20 hrs
Enterococcus faecalis [5] = test: Antibacterial activity against vancomycin-resistant Enterococcus faecalis ATCC 51575 assessed as reduction in bacterial growth incubated for 18 to 20 hrs by broth microdilution assay; settings: time 18-20 hrs
Acinetobacter baumannii = test: Antibacterial activity against Acinetobacter baumannii NCTC 13423 assessed as reduction in bacterial growth incubated for 18 to 20 hrs by broth microdilution assay; settings: time 18-20 hrs
Staphylococcus aureus [6] = test: Antibacterial activity against Staphylococcus aureus ATCC 43300 assessed as reduction in bacterial growth incubated for 18 to 20 hrs by broth microdilution assay; settings: time 18-20 hrs
Enterococcus faecalis [7] = test: Antibacterial activity against Enterococcus faecalis ATCC 29212 assessed as reduction in bacterial growth incubated for 18 to 20 hrs by broth microdilution assay; settings: time 18-20 hrs
Pseudomonas aeruginosa = test: Antibacterial activity against Pseudomonas aeruginosa ATCC 15442 assessed as reduction in bacterial growth incubated for 18 to 20 hrs by broth microdilution assay; settings: time 18-20 hrs
Staphylococcus aureus [8] = test: Antibacterial activity against […] Staphylococcus aureus ATCC 43300 assessed as reduction in bacterial growth incubated for 18 to 20 hrs by broth microdilution assay; settings: time 18-20 hrs
[9] = tested on: Staphylococcus epidermidis; test: Antibacterial activity against Staphylococcus epidermidis RP62A assessed as reduction in bacterial growth incubated for 18 to 20 hrs by broth microdilution assay; settings: time 18-20 hrs
[10] = tested on: Staphylococcus epidermidis; test: Antibacterial activity against […] Staphylococcus epidermidis RP62A assessed as reduction in bacterial growth incubated for 18 to 20 hrs by broth microdilution assay; settings: time 18-20 hrs
Enterococcus faecium = test: Antibacterial activity against vancomycin-resistant Enterococcus faecium ATCC 700221 assessed as reduction in bacterial growth incubated for 18 to 20 hrs by broth microdilution assay; settings: time 18-20 hrs

SMILES: O=C(O)Cc1ccc(OCc2ccc(C3CCCC3)c(C(F)(F)F)c2)cn1
inhibition at 100 µM (Staphylococcus aureus [1]): > 90% | MIC (Staphylococcus aureus [2]): > 40 µM and > 15.2 µg/mL | inhibition at 40 µM (Staphylococcus aureus [3]): ≤ 90% | inhibition at 100 µM (Staphylococcus aureus [4]): > 90%

SMILES: O=C(O)Cn1ccc2cc(OCc3ccc(C4CCCC4)c(C(F)(F)F)c3)ccc21
inhibition at 100 µM (Staphylococcus aureus [1]): > 90% | MIC (Staphylococcus aureus [2]): 20 µM and 8.3 µg/mL | inhibition at 40 µM (Staphylococcus aureus [3]): ≤ 90% | inhibition at 100 µM (Staphylococcus aureus [4]): > 90%

SMILES: O=C(O)Cc1c[nH]c2ccc(OCc3ccc(C4CCCC4)c(C(F)(F)F)c3)cc12
inhibition at 100 µM (Staphylococcus aureus [1]): > 90% | MIC (Staphylococcus aureus [2]): 20 µM and 8.3 µg/mL | inhibition at 40 µM (Staphylococcus aureus [3]): ≤ 90% | inhibition at 100 µM (Staphylococcus aureus [4]): > 90%

SMILES: O=C(O)CC1CCc2c1[nH]c1ccc(OCc3ccc(C4CCCC4)c(C(F)(F)F)c3)cc21 (racemic)
inhibition at 100 µM (Staphylococcus aureus [1]): > 90% | MIC (Staphylococcus aureus [2]): 5 µM and 2.3 µg/mL | inhibition at 40 µM (Staphylococcus aureus [3]): ≤ 90% | inhibition at 100 µM (Staphylococcus aureus [4]): > 90%

SMILES: Cc1[nH]c2ccc(OCc3ccc(C4CCCC4)c(C(F)(F)F)c3)cc2c1CC(=O)O
inhibition at 100 µM (Staphylococcus aureus [1]): > 90% | MIC (Staphylococcus aureus [2]): 20 µM and 8.6 µg/mL | inhibition at 40 µM (Staphylococcus aureus [3]): ≤ 90% | inhibition at 100 µM (Staphylococcus aureus [4]): > 90%

SMILES: O=C(O)c1cc2cc(OCc3ccc(C4CCCC4)c(C(F)(F)F)c3)ccc2[nH]1
MIC (Enterococcus faecalis [5]): 10 µM (≈ 4.03 µg/mL) | inhibition at 100 µM (Staphylococcus aureus [1]): > 90% | MIC (Staphylococcus aureus [2]): 5 µM and 2 µg/mL | MIC (Acinetobacter baumannii): > 200 µM | MIC (Staphylococcus aureus [6]): 5 µM (≈ 2.02 µg/mL) | MIC (Enterococcus faecalis [7]): 10 µM (≈ 4.03 µg/mL) | MIC (Pseudomonas aeruginosa): > 200 µM | MIC (Staphylococcus aureus [8]): 5 µM (≈ 2.02 µg/mL) | MIC [9]: 5 µM (≈ 2.02 µg/mL) | inhibition at 40 µM (Staphylococcus aureus [3]): ≤ 90% | MIC [10]: 2.5 µM (≈ 1.01 µg/mL) | MIC (Enterococcus faecium): 10 µM (≈ 4.03 µg/mL) | inhibition at 100 µM (Staphylococcus aureus [4]): > 90%

SMILES: NC(=O)CC1CCc2c1[nH]c1ccc(OCc3ccc(C4CCCC4)c(C(F)(F)F)c3)cc21 (stereo unspecified)
inhibition at 100 µM (Staphylococcus aureus [1]): > 90% | MIC (Staphylococcus aureus [2]): 20 µM and 9.1 µg/mL | inhibition at 40 µM (Staphylococcus aureus [3]): ≤ 90% | inhibition at 100 µM (Staphylococcus aureus [4]): > 90%

SMILES: O=C(O)CC1CCc2c1[nH]c1ccc(OCc3ccc(C4CCCC4)cc3)cc21 (stereo unspecified)
inhibition at 100 µM (Staphylococcus aureus [1]): > 90% | MIC (Staphylococcus aureus [2]): 20 µM and 7.8 µg/mL | inhibition at 40 µM (Staphylococcus aureus [3]): ≤ 90% | inhibition at 100 µM (Staphylococcus aureus [4]): > 90%

SMILES: CS(=O)(=O)NC(=O)CC1CCc2c1[nH]c1ccc(OCc3ccc(C4CCCC4)c(C(F)(F)F)c3)cc21 (stereo unspecified)
MIC (Enterococcus faecalis [5]): 5 µM (≈ 2.67 µg/mL) | inhibition at 100 µM (Staphylococcus aureus [1]): > 90% | MIC (Staphylococcus aureus [2]): 5 µM and 2.7 µg/mL | MIC (Acinetobacter baumannii): > 200 µM | MIC (Staphylococcus aureus [6]): 5 µM (≈ 2.67 µg/mL) | MIC (Enterococcus faecalis [7]): 5 µM (≈ 2.67 µg/mL) | MIC (Pseudomonas aeruginosa): > 200 µM | MIC (Staphylococcus aureus [8]): 5 µM (≈ 2.67 µg/mL) | MIC [9]: 10 µM (≈ 5.35 µg/mL) | inhibition at 40 µM (Staphylococcus aureus [3]): ≤ 90% | MIC [10]: 10 µM (≈ 5.35 µg/mL) | MIC (Enterococcus faecium): 10 µM (≈ 5.35 µg/mL) | inhibition at 100 µM (Staphylococcus aureus [4]): > 90%

SMILES: O=C(O)CCc1c[nH]c2ccc(OCc3ccc(C4CCCC4)c(C(F)(F)F)c3)cc12
inhibition at 100 µM (Staphylococcus aureus [1]): > 90% | MIC (Staphylococcus aureus [2]): 20 µM and 8.6 µg/mL | inhibition at 40 µM (Staphylococcus aureus [3]): ≤ 90% | inhibition at 100 µM (Staphylococcus aureus [4]): > 90%

SMILES: O=C(O)c1ccc(OCc2ccc(C3CCCC3)c(C(F)(F)F)c2)cn1
MIC (Enterococcus faecalis [5]): 20 µM (≈ 7.31 µg/mL) | inhibition at 100 µM (Staphylococcus aureus [1]): > 90% | MIC (Staphylococcus aureus [2]): 10 µM and 3.7 µg/mL | MIC (Acinetobacter baumannii): > 200 µM | MIC (Staphylococcus aureus [6]): 5 µM (≈ 1.83 µg/mL) | MIC (Enterococcus faecalis [7]): 10 µM (≈ 3.65 µg/mL) | MIC (Pseudomonas aeruginosa): > 200 µM | MIC (Staphylococcus aureus [8]): 5 µM (≈ 1.83 µg/mL) | MIC [9]: 5 µM (≈ 1.83 µg/mL) | inhibition at 40 µM (Staphylococcus aureus [3]): ≤ 90% | MIC [10]: 10 µM (≈ 3.65 µg/mL) | MIC (Enterococcus faecium): 20 µM (≈ 7.31 µg/mL) | inhibition at 100 µM (Staphylococcus aureus [4]): > 90%

Further lines, with some results ahead:

MIC (Staphylococcus aureus [2]): 10 µM and 4.5 µg/mL
SMILES: CCCCc1ccc(COc2ccc3[nH]c4c(c3c2)CCC4CC(=O)O)cc1C(F)(F)F (stereo unspecified)
inhibition at 100 µM (Staphylococcus aureus [1]): > 90% | inhibition at 40 µM (Staphylococcus aureus [3]): ≤ 90% | inhibition at 100 µM (Staphylococcus aureus [4]): > 90%

MIC (Staphylococcus aureus [2]): 10 µM and 4.5 µg/mL
SMILES: CC(C)Cc1ccc(COc2ccc3[nH]c4c(c3c2)CCC4CC(=O)O)cc1C(F)(F)F (stereo unspecified)
inhibition at 100 µM (Staphylococcus aureus [1]): > 90% | inhibition at 40 µM (Staphylococcus aureus [3]): ≤ 90% | inhibition at 100 µM (Staphylococcus aureus [4]): > 90%

MIC (Staphylococcus aureus [2]): > 40 µM and > 15.6 µg/mL
SMILES: O=C(O)CC1CCc2c1[nH]c1ccc(OCc3cccc(C(F)(F)F)c3)cc21 (stereo unspecified)
inhibition at 100 µM (Staphylococcus aureus [1]): > 90% | inhibition at 40 µM (Staphylococcus aureus [3]): ≤ 90% | inhibition at 100 µM (Staphylococcus aureus [4]): > 90%

MIC (Staphylococcus aureus [2]): > 40 µM and > 18.3 µg/mL
SMILES: O=C(O)CC1CCc2c1[nH]c1ccc(OCc3noc(-c4ccc(C(F)(F)F)cc4)n3)cc21 (stereo unspecified)
inhibition at 100 µM (Staphylococcus aureus [1]): > 90% | inhibition at 40 µM (Staphylococcus aureus [3]): ≤ 90% | inhibition at 100 µM (Staphylococcus aureus [4]): > 90%

MIC (Staphylococcus aureus [2]): 5 µM and 2.5 µg/mL
SMILES: O=C(O)CC1CCc2c1[nH]c1ccc(OCc3ccc(-c4ccc(Cl)s4)c(C(F)(F)F)c3)cc21 (stereo unspecified)
inhibition at 100 µM (Staphylococcus aureus [1]): > 90% | inhibition at 40 µM (Staphylococcus aureus [3]): ≤ 90% | inhibition at 100 µM (Staphylococcus aureus [4]): > 90%
